Patent US6355409B1, “Tagatose as a cytoprotective supplement for the removal and/or storage of organs to reduce reperfusion injury” (Biospherics Incorporated, priority 2000, dated 2002)

How the values were obtained:
[1] = high concentrations; cited from earlier work
[2] = test system: organ, e.g., a liver; test: Removal and/or storage of organ in tagatose-containing organ storage solution (Examples 1-3); design: species or system human; conditions: tagatose solution containing about 0.36% by weight of tagatose, with nutrients and electrolytes
From the text: After the organ, e.g., a liver is accessed by surgery on a human subject, three liters of chilled tagatose solution containing about 0.36% by weight of tagatose are used to flush the blood from it and to cool the organ while still on the body. The tagatose solution contains the amounts of nutrients and electrolytes common to present day storage solutions, such as Viaspan. […] The organ is then removed and placed into a chilled sterile container, holding more of the tagatose solution, for refrigerated storage until the transplant occurs. The ischemia time is shorter in this procedure than in Example 1. The donor organ is removed and perfused with tagatose solution containing about 0.36% by weight of tagatose that, again, contains the requisite nutrients and electrolytes. The organ is then placed into a sterile container that contains more of the same tagatose solution. That sterile container is placed into two more sterile containers and is then placed on ice for immediate transit to the organ recipient. The organ is removed as described in Example 1. It is flushed and perfused with tagatose solution, containing about 0.36% by weight of tagatose, and containing the requisite nutrients and electrolytes. The organ is placed in a sterile container with more of the same tagatose solution. Two protocols may be used for storage a. […]

[3] = test system: liver cells; test: Exposure of organ cells to tagatose, ATP level; format: cell-based; conditions: exposure of organ cells such as liver cells to tagatose

Row | SMILES | toxicity [1] | reperfusion injury of the organ [2] | ATP in organ cells [3]
1 | CC(=O)N(O)CCCCCNC(=O)CCC(=O)N(O)CCCCCNC(=O)CCC(=O)N(O)CCCCCN [deferoxamine] | toxic at high concentrations |  | 
2 | O=C(CO)[C@@H](O)[C@@H](O)[C@H](O)CO [tagatose] |  | reduces reperfusion injury | massively decreases ATP
